Key:
[1] = tested on: synthesis of LTB4 in human whole blood; experiment: Human whole blood assay (inhibition of LTB4 synthesis, calcimycin stimulated); type: cell-based; conditions: heparinized human whole blood, calcimycin 20 μM, plasma LTB4
How it was run: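 LTB4 levels in plasma were measured by antibody-based HTRF after heparinized human whole blood, pretreated with compound (15 min, 37° C), was challenged with 20 μM calcimycin for 30 min at 37° C.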

[2] = biological target: T1, recombinant human FLAP protein (Homo sapiens, UniProt P20292); experiment: FLAP binding assay (SPA, displacement of [125I]L-691,831); conditions: membranes of sf9 cells expressing recombinant human FLAP; [125I]L-691,831 probe; read-out: FLAP binding IC50
T1 construct: made in house; host or cells: Sf9 insect cells (100,000×g membrane pellet used)
T1 sequence (P20292 1-161): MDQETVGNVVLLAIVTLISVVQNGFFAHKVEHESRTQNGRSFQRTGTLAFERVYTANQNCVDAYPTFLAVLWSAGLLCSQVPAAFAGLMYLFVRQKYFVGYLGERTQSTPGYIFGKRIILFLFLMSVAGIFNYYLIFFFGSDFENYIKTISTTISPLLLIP
How it was run: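 Membranes from sf9 cells expressing human FLAP in pH 7.5 Tris buffer (MgCl2, EDTA, PMSF). Non-specific binding defined with 10 μM cold L-691,831.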

| Compound | IC50 [1] [nM] | IC50 [2] [nM] |
| --- | --- | --- |
| CN(C)C(=O)Cn1cc(-c2nc(C(C)(c3ccc(-c4cnc5c(c4)OCCN5)cc3)C3CC3)no2)cn1 (stereo not shown) [Example 239, 2-[4-(3-{1-Cyclopropyl-1-[4-(3,4-dihydro-2H-pyrido[3,2-b][1,4]oxazin-7-yl)-phenyl]-ethyl}-[1,2,4]oxadiazol-5-yl)-pyrazol-1-yl]-N,N-dimethyl-acetamide] | 290 | 4.1 |
| CC(C)(CO)Nc1cnc(-c2nc(C(C)(C)c3ccc(-c4cnc(N)nc4)cc3)no2)cn1 [Example 74, 2-{[5-(3-{2-[4-(2-aminopyrimidin-5-yl)phenyl]propan-2-yl}-1,2,4-oxadiazol-5-yl)pyrazin-2-yl]amino}-2-methylpropan-1-ol] | 640 | 17 |
| CC(C)C(C)(c1ccc(-c2cnc(N)nc2)cc1)c1noc(N2CCN(CC(=O)O)CC2)n1 (stereo not shown) [Example 272, [4-(3-{1-[4-(2-Amino-pyrimidin-5-yl)-phenyl]-1,2-dimethyl-propyl}-[1,2,4]oxadiazol-5-yl)-piperazin-1-yl]-acetic acid] | > 5000 | 280 |
| CC(C)C(C)(c1ccc(-c2cnc(N)nc2)cc1)c1noc(N2CCC(N)CC2)n1 (stereo not shown) [Example 222, 5-(4-{1-[5-(4-Amino-piperidin-1-yl)-[1,2,4]oxadiazol-3-yl]-1,2-dimethyl-propyl}-phenyl)-pyrimidin-2-ylamine] | 1700 | 130 |
| CC(C)(CO)Nc1cnc(-c2nc(C(C)(c3ccc(-c4cnc(N)nc4)cc3)C3CC3)no2)cn1 (stereo not shown) [Example 45, 2-{[5-(3-{1-[4-(2-aminopyrimidin-5-yl)phenyl]-1-cyclopropylethyl}-1,2,4-oxadiazol-5-yl)pyrazin-2-yl]amino}-2-methylpropan-1-ol] | 140 | 3.1 |
| CC(C)C(C)(c1ccc(-c2cnc(N)nc2)cc1)c1noc(-c2ccc(N3CCOCC3)nc2)n1 (stereo not shown) [Example 135, 5-[4-(3-methyl-2-{5-[6-(morpholin-4-yl)pyridin-3-yl]-1,2,4-oxadiazol-3-yl}butan-2-yl)phenyl]pyrimidin-2-amine] | 250 | 1.4 |
| CC(C)C(C)(c1ccc(-c2cnc(N)nc2)cc1)c1noc(-c2cccnc2)n1 (stereo not shown) [Example 3, 5-(4-{3-methyl-2-[5-(pyridin-3-yl)-1,2,4-oxadiazol-3-yl]butan-2-yl}phenyl)pyrimidin-2-amine] | 94 | 1.7 |
| Cn1cc(-c2nc(C(C)(c3ccc(-c4cnc(N)nc4)cc3)C3CC3)no2)cn1 (stereo not shown) [Example 22, 5-(4-{1-cyclopropyl-1-[5-(1-methyl-1H-pyrazol-4-yl)-1,2,4-oxadiazol-3-yl]ethyl}phenyl)pyrimidin-2-amine] | 46 | 4.2 |
| COCCn1cc(-c2nc([C@](C)(c3ccc(-c4cnc(N)nc4)cc3)C(C)C)no2)cn1 [Example 64, 5-{4-[(2S)-2-{5-[1-(2-methoxyethyl)-1H-pyrazol-4-yl]-1,2,4-oxadiazol-3-yl}-3-methylbutan-2-yl]phenyl}pyrimidin-2-amine] | 410 | 16 |
| CC(C)C(C)(c1ccc(-c2cnc(N)nc2)cc1)c1noc(N2CC(O)C2)n1 (stereo not shown) [Example 200, 1-(3-{1-[4-(2-Amino-pyrimidin-5-yl)-phenyl]-1,2-dimethyl-propyl}-[1,2,4]oxadiazol-5-yl)-azetidin-3-ol] | 250 | 15 |
| CC(C)C(C)(c1ccc(-c2cnc(N)nc2)cc1)c1noc(C2CCOCC2)n1 (stereo not shown) [Example 138, 5-(4-{3-methyl-2-[5-(tetrahydro-2H-pyran-4-yl)-1,2,4-oxadiazol-3-yl]butan-2-yl}phenyl)pyrimidin-2-amine] | 760 | 15 |
| CC(C)C(C)(c1ccc(-c2cnc(N)nc2)cc1)c1noc(C2(C)CC2)n1 (stereo not shown) [Example 118, 5-(4-{3-methyl-2-[5-(1-methylcyclopropyl)-1,2,4-oxadiazol-3-yl]butan-2-yl}phenyl)pyrimidin-2-amine] | 820 | 9.9 |
| CC(c1ccc(-c2cnc(N)nc2)cc1)(c1noc(-c2cnn(C3COC3)c2)n1)C1CCC1 (stereo not shown) [Example 99, 5-[4-(1-cyclobutyl-1-{5-[1-(oxetan-3-yl)-1H-pyrazol-4-yl]-1,2,4-oxadiazol-3-yl}ethyl)phenyl]pyrimidin-2-amine] | 200 | 3.9 |
| CN(C)C(=O)Cn1cc(-c2nc([C@@](C)(c3ccc(-c4cnc(N)nc4)cc3)C3CCC3)no2)cn1 [Example 104, 2-[4-(3-{(1R)-1-[4-(2-aminopyrimidin-5-yl)phenyl]-1-cyclobutylethyl}-1,2,4-oxadiazol-5-yl)-1H-pyrazol-1-yl]-N,N-dimethylacetamide] | 130 | 6.1 |
| CC(C)C(C)(c1ccc(-c2cnc(N)nc2)cc1)c1noc(C2CCCCN2)n1 (stereo not shown) [Example 114, 5-(4-{3-methyl-2-[5-(piperidin-2-yl)-1,2,4-oxadiazol-3-yl]butan-2-yl}phenyl)pyrimidin-2-amine] | 1100 | 21 |
| COCCn1cc(-c2nc([C@@](C)(c3ccc(-c4cnc(N)c(C)n4)cc3)C3CC3)no2)cn1 [Example 189, 5-[4-((R)-1-Cyclopropyl-1-{5-[1-(2-methoxy-ethyl)-1H-pyrazol-4-yl]-[1,2,4]oxadiazol-3-yl}-ethyl)-phenyl]-3-methyl-pyrazin-2-ylamine] | 49 | 13 |
| Cn1ccc(-c2nc(C(C)(c3ccc(-c4cnc(N)nc4)cc3)C3CC3)no2)n1 (stereo not shown) [Example 26, 5-(4-{1-cyclopropyl-1-[5-(1-methyl-1H-pyrazol-3-yl)-1,2,4-oxadiazol-3-yl]ethyl}phenyl)pyrimidin-2-amine] | 160 | 9.1 |
| C[C@](c1ccc(-c2cnc(N)nc2)cc1)(c1noc(-c2cn[nH]c2)n1)C1CC1 [Example 49, 5-(4-{(1S)-1-cyclopropyl-1-[5-(1H-pyrazol-4-yl)-1,2,4-oxadiazol-3-yl]ethyl}phenyl)pyrimidin-2-amine] | 680 | 19 |
| CC(C)C(C)(c1ccc(-c2cnc(N)nc2)cc1)c1noc(C2CCCNC2)n1 (stereo not shown) [Example 113, 5-(4-{3-methyl-2-[5-(piperidin-3-yl)-1,2,4-oxadiazol-3-yl]butan-2-yl}phenyl)pyrimidin-2-amine] | 3100 | 66 |
| COc1cncc(-c2ccc(C(C)(c3noc(-c4cnn(C)c4)n3)C3CC3)cc2)c1 (stereo not shown) [Example 286, 3-(4-{1-Cyclopropyl-1-[5-(1-methyl-1H-pyrazol-4-yl)-[1,2,4]oxadiazol-3-yl]-ethyl}-phenyl)-5-methoxy-pyridine] | 2100 | 16 |
| CC1(O)CN(c2nc(C(C)(c3ccc(-c4cnc(N)nc4)cc3)C3CC3)no2)C1 (stereo not shown) [Example 276, 1-(3-{1-[4-(2-Amino-pyrimidin-5-yl)-phenyl]-1-cyclopropyl-ethyl}-[1,2,4]oxadiazol-5-yl)-3-methyl-azetidin-3-ol] | 260 | 28 |
| Cn1cc(-c2nc([C@H](c3ccc(-c4cnc(N)nc4)cc3)C(C)(C)C)no2)cn1 [Example 66, 5-(4-{(1S)-2,2-dimethyl-1-[5-(1-methyl-1H-pyrazol-4-yl)-1,2,4-oxadiazol-3-yl]propyl}phenyl)pyrimidin-2-amine] | 330 | 11 |
| CC(C)C(C)(c1ccc(-c2cnc(N)nc2)cc1)c1noc(-c2cnn(CC(=O)N(C)C)c2)n1 (stereo not shown) [Example 106, 2-[4-(3-{2-[4-(2-aminopyrimidin-5-yl)phenyl]-3-methylbutan-2-yl}-1,2,4-oxadiazol-5-yl)-1H-pyrazol-1-yl]-N,N-dimethylacetamide] | 76 | 4.8 |
| Cn1cnc(-c2nc(C(C)(c3ccc(-c4cnc(N)nc4)cc3)C3CC3)no2)c1 (stereo not shown) [Example 28, 5-(4-{1-cyclopropyl-1-[5-(1-methyl-1H-imidazol-4-yl)-1,2,4-oxadiazol-3-yl]ethyl}phenyl)pyrimidin-2-amine] | 320 | 26 |
| CNC(=O)Cn1cc(-c2nc([C@@](C)(c3ccc(-c4cnc(N)nc4)cc3)C3CC3)no2)cn1 [Example 230, 2-[4-(3-{(R)-1-[4-(2-Amino-pyrimidin-5-yl)-phenyl]-1-cyclopropyl-ethyl}-[1,2,4]oxadiazol-5-yl)-pyrazol-1-yl]-N-methyl-acetamide] | 160 | 3.8 |
| CC(C)C(C)(c1ccc(-c2cnc(N)nc2)cc1)c1noc(N2CCC(N(C)C)CC2)n1 (stereo not shown) [Example 218] | 920 | 130 |
| CC(C)C(C)(c1ccc(-c2cnc(N)nc2)cc1)c1noc(N2CCN(CC(C)(C)O)CC2)n1 (stereo not shown) [Example 211, 1-[4-(3-{1-[4-(2-Amino-pyrimidin-5-yl)-phenyl]-1,2-dimethyl-propyl}-[1,2,4]oxadiazol-5-yl)-piperazin-1-yl]-2-methyl-propan-2-ol] | 230 | 12 |
| CC(C)C(C)(c1ccc(-c2cnc(N)nc2)cc1)c1noc(N2CCN(C3CC3)CC2)n1 (stereo not shown) [Example 266, 5-(4-{1-[5-(4-Cyclopropyl-piperazin-1-yl)-[1,2,4]oxadiazol-3-yl]-1,2-dimethyl-propyl}-phenyl)-pyrimidin-2-ylamine] | 170 | 16 |
| CC(C)C(C)(c1ccc(-c2cnc(N)nc2)cc1)c1noc(-c2cnn(C3COC3)c2)n1 (stereo not shown) [Example 161, 5-[4-(3-methyl-2-{5-[1-(oxetan-3-yl)-1H-pyrazol-4-yl]-1,2,4-oxadiazol-3-yl}butan-2-yl)phenyl]pyrimidin-2-amine] | 36 | 2 |

Reference: US8658661B2, “Oxadiazole inhibitors of leukotriene production” (Boehringer Ingelheim International GmbH, priority 2010, dated 2014)
